# Entries after “also recorded” stand apart in the source; their conditions may differ. Where two headings read alike, the source gives them in different places.
# Key:
# ovine adipocytes = experiment: Lipolytic activity on isolated ovine adipocytes (FFA production), in relation to Isoprenaline; type: cell-based, sheep
# Description: It is known, for example, from a contribution by R. G. Vernon in "New perspectives in Adipose Tissue; structure, function and development", page 76, edited by Cryer and Van, Butterworths 1984, London, that there exists a good relationship between the lipolytic activity on the one hand and the activity as a repartitioning agent on the other hand. This means that a high value for the lipolytic activity is predictable for the increase of the muscle/fat ratio and for improving the growth and the feed efficiency of agricultural domestic animals. The influence of the tested compounds on the lipolysis of adipocytes is described in example I hereinafter. Bovine and ovine adipocytes, i.e. adipocytes of representative examples of agricultural domestic animals, have been used in this example.
# Pieces of adipose tissue of approximately 600×600 μm, isolated from bovine animals or sheep, are provided in a teflon container containing: 3 ml of Krebs-Henseleit buffer having a pH of 7.4, 1% w/v of demineralized bovine serum albumin (BSA), 0.33 mg/ml of collagenase and 200 nM of adenosine. The adipocytes are isolated by shaking the container at 37° C. under carbogen gassing (approximately 5% CO2 in 95% O2). After 1 hour the suspension is filtered through nylon gauze (100 μm) and washed 2 times with Krebs-Henseleit buffer at room temperature. The incubations are carried out in duplicate, each incubation mixture consisting of 50 μl of the filtered cell suspension, 100 μl of the compound to be tested, 2% w/v of BSA and 50 μg/ml of Na2 S2 O5 (antioxidant) in 2.85 ml of Krebs-Henseleit buffer. Incubation: 90 minutes at 37° C. while shaking and gassing with carbogen. […] In the organic layer the produced free fatty acids (FFA) are determined. […] The yellow color is measured in a colorimeter and is a measure of the FFA-production. […] In addition to the fond pEC50 values, the values for the intrinsic activity ("i.a.") have been recorded in Table A hereinafter. The intrinsic activity is the maximally achievable activity, also measured again with respect to Isoprenaline®.
# bovine adipocytes = experiment: Lipolytic activity on isolated bovine adipocytes (FFA production), in relation to Isoprenaline; type: cell-based; details: for EC50 / Emax: Bos taurus, Adipocyte; for EC50: 1.5 h, read-out: Lipolytic activity: pEC50 (converted); for Emax: read-out: Lipolytic activity: i.a. (intrinsic activity)
# Protocol: Pieces of adipose tissue of approximately 600×600 μm, isolated from bovine animals or sheep, are provided in a teflon container containing: 3 ml of Krebs-Henseleit buffer having a pH of 7.4, 1% w/v of demineralized bovine serum albumin (BSA), 0.33 mg/ml of collagenase and 200 nM of adenosine. […] After 1 hour the suspension is filtered through nylon gauze (100 μm) and washed 2 times with Krebs-Henseleit buffer at room temperature. The incubations are carried out in duplicate, each incubation mixture consisting of 50 μl of the filtered cell suspension, 100 μl of the compound to be tested, 2% w/v of BSA and 50 μg/ml of Na2 S2 O5 (antioxidant) in 2.85 ml of Krebs-Henseleit buffer. Incubation: 90 minutes at 37° C. while shaking and gassing with carbogen. After the incubation, extraction is carried out with 3 ml of 2-propanol/n-hexane/1N-H2 SO4 (40:20:1) mixture. In the organic layer the produced free fatty acids (FFA) are determined. This determination is carried out as follows: 150 μl of sample are diluted with 1 ml of chloroform and then mixed with copper reagent (10% Cu(NO3)2 /2M triethanolamine/2N acetic acid=10:9:1); 0.2% w/v of sodium diethyldithiocarbamate is added. The yellow color is measured in a colorimeter and is a measure of the FFA-production. […] The intrinsic activity is the maximally achievable activity, also measured again with respect to Isoprenaline®.
# swine adipose tissue = details: Mersmann, cited from earlier work; for lipolytic activity, in words: pigs
# right atrium = experiment: Heart activity: chronotropic effect on isolated right atria, in relation to Isoprenaline; type: cell-based, male Wistar rats; details: for Emax: read-out: Chronotropic effect on the right atrium: i.a. (intrinsic activity); for EC50: read-out: Chronotropic effect on the right atrium: pEC50 (converted)
# Protocol: The heart activity has been determined in heart tissue of rats. It is known that rats are just as suitable for the determination of the heart activity (chronotropy) as the agricultural domestic animals mentioned hereinbefore.
# The substances are tested with respect to their chronotropic effect on isolated right atria under a pre-load with 0.5 g, in an organ bath which contains the above Krebs buffer solution and is kept at 37° C. Dose-response curves with Isoprenaline® are determined. The results are again expressed as pEC50 values and, in relation to Isoprenaline®, as intrinsic activities ("i.a.").
# heart = details: in the dosages required for the intended purpose; cited from earlier work
# heart rate = details: pig, in vivo; cited from earlier work
# [1] = compared with tested known substances / in the concentration required for the intended use
SMILES,EC50 (bovine adipocytes) [nM],Emax (bovine adipocytes) [%],"lipolytic activity, in words (swine adipose tissue)",Emax (right atrium; Rattus norvegicus) [%],EC50 (right atrium; Rattus norvegicus) [nM],"heart activity, in words (right atrium; [1])","side effects on the heart, in words (heart)",further results
"CC(C)(Cc1ccc(O)cc1)NCC(O)c1cc(O)cc(O)c1 (stereo not shown) [(1), 1-(3,5-dihydroxyphenyl)-2-[1,1-dimethyl-2-(4-hydroxyphenyl)ethylamino]ethanol]",3160,80,low lipolytic activity,40,2510,"considerably lower than that of the substances Ractopamine®, Fenoterol® and Clenbuterol®; also recorded: without a burdensome heart activity being experienced",–,"lipolytic activity on ovine adipocytes, in words (ovine adipocytes): remarkably high lipolytic activity; EC50 (ovine adipocytes; Ovis aries, Adipocyte, 1.5 h, 90 minutes at 37° C., pEC50 = negative logarithm of concentration at 50% of maximum effect): 501 nM; Emax (ovine adipocytes; Ovis aries, Adipocyte, maximally achievable activity with respect to Isoprenaline, read-out: Lipolytic activity: i.a. (intrinsic activity)): 140%; lipolytic activity on bovine adipocytes, in words (bovine adipocytes; bovine adipocytes): remarkably high lipolytic activity; intrinsic lipolytic activity, comparison in words (bovine adipocytes; versus Ractopamine and Clenbuterol): significantly higher than that of the phenylalkylamino derivatives Ractopamine® and Clenbuterol®; relative ED50 (lipolysis) (swine adipose tissue; swine adipose tissue, relative to Fenoterol): approximately ten times as high as that of Fenoterol®; heart activity, in words (right atrium; compared with tested known substances / in the concentration required for the intended use, listed as 1-(3,5-dihydroxyphenyl)-2-[1,1-dimethyl-2-(4-hydroxyphenyl)-ethylamino]ethanol): low heart effect"
CC(C)(C)NCC(O)c1cc(Cl)c(N)c(Cl)c1 (stereo not shown) [Clenbuterol],1580,30,–,40,50.1,–,serious side effects because in the dosages required for the intended purpose an undesired influence on the heart is exerted,–
CC(Cc1ccc(O)cc1)NCC(O)c1cc(O)cc(O)c1 (stereo not shown) [Fenoterol],794,80,–,100,251,considerable heart activity in the concentration required for the intended purpose,–,–
CC(CCc1ccc(O)cc1)NCC(O)c1ccc(O)cc1 (stereo not shown) [Ractopamine],–,–,–,–,–,–,serious side effects because in the dosages required for the intended purpose an undesired influence on the heart is exerted,"EC50 (bovine adipocytes; bovine adipocytes, 90 minutes at 37° C., pEC50 = negative logarithm of concentration at 50% of maximum effect): 2510 nM; Emax (bovine adipocytes; bovine adipocytes, maximally achievable activity with respect to Isoprenaline): 60%; heart activity, in words (right atrium): considerable heart activity in the required concentration; Emax (right atrium; isolated rat right atria, in relation to Isoprenaline): 100%; EC50 (right atrium; isolated rat right atria, pre-load 0.5 g, Krebs buffer, 37° C.): 31.6 nM"
CC(C)(C)NCC(O)c1cc(O)cc(O)c1 (stereo not shown) [terbutaline],–,–,less active in lipolysis,–,–,–,–,"increasing heart rate, in words (heart rate): more active in increasing heart rate"

# From patent US5266589A, “Method of increasing the muscle/fat ratio in agricultural domestic animals” (Duphar International Research B.V., priority 1990, dated 1993)
